# Source: PubChem BioAssay AID330 (DTP/NCI, 2004)
# Several values for one entry are separate records, joined by “and”; a condition that tells them apart may be missing. Equal values may be shown once. Toxic doses and inconclusive results are not listed.
# Tested on: P388 leukemia ip, CD2F1 mice, survival T/C
# Test: NCI In Vivo Anticancer Drug Screen. Data for tumor model P388 Leukemia (intraperitoneal) in CD2F1 (CDF1) mice
# Settings: endpoint: median survival time, higher = longer survival
# How it was run: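 Mice carrying the transplanted tumor received test compound or vehicle. Survival was recorded in each group, and the value is the treated-group measurement divided by that of the vehicle-treated control group.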
# [1] = dose: 50.0 mg/kg/injection, schedule: Q01DX005 (ip), vehicle: Klucel (hydroxypropylcellulose) (HPC)
# [2] = dose: 100.0 mg/kg/injection, schedule: Q01DX005 (ip), vehicle: Klucel (hydroxypropylcellulose) (HPC)
# [3] = dose: 200.0 mg/kg/injection, schedule: Q01DX005 (ip), vehicle: Klucel (hydroxypropylcellulose) (HPC)
structure (smiles),measurement,setting,value
NC1=NC2(CS1)CSC(N)=N2,T/C,"dose: 50.0 mg/kg/injection, schedule: Q01DX009 (ip), vehicle: saline with Tween-80",94 % of control
same,T/C,"dose: 100.0 mg/kg/injection, schedule: Q01DX009 (ip), vehicle: saline with Tween-80",113 % of control
same,T/C,"dose: 200.0 mg/kg/injection, schedule: Q01DX009 (ip), vehicle: saline with Tween-80",90 % of control
NCc1c(Cl)c(Cl)c(Cl)c(CN)c1Cl,T/C,"dose: 50.0 mg/kg/injection, schedule: Q04DX003 (ip), vehicle: saline with Tween-80",100 % of control
same,T/C,"dose: 100.0 mg/kg/injection, schedule: Q04DX003 (ip), vehicle: saline with Tween-80",100 % of control
same,T/C,"dose: 200.0 mg/kg/injection, schedule: Q04DX003 (ip), vehicle: saline with Tween-80",105 % of control
CCOC(=O)Nc1cc2c(c(N)n1)N=C(CN(C)c1ccccc1)CN2,T/C,"dose: 1.56 mg/kg/injection, schedule: Q01DX009 (ip), vehicle: Klucel (hydroxypropylcellulose) (HPC)",112 % of control and 123 % of control
same,T/C,"dose: 3.12 mg/kg/injection, schedule: Q01DX009 (ip), vehicle: Klucel (hydroxypropylcellulose) (HPC)",100 % of control and 111 % of control
same,T/C,"dose: 6.25 mg/kg/injection, schedule: Q01DX009 (ip), vehicle: Klucel (hydroxypropylcellulose) (HPC)",106 % of control and 123 % of control
same,T/C,"dose: 12.5 mg/kg/injection, schedule: Q01DX009 (ip), vehicle: Klucel (hydroxypropylcellulose) (HPC)",124 % of control
same,T/C,"dose: 25.0 mg/kg/injection, schedule: Q01DX009 (ip), vehicle: Klucel (hydroxypropylcellulose) (HPC)",109 % of control and 123 % of control
same,T/C,"dose: 50.0 mg/kg/injection, schedule: Q01DX009 (ip), vehicle: Klucel (hydroxypropylcellulose) (HPC)",98 % of control
same,T/C,"dose: 67.0 mg/kg/injection, schedule: Q01DX001 (ip), vehicle: Klucel (hydroxypropylcellulose) (HPC)",195 % of control
same,T/C,"dose: 100.0 mg/kg/injection, schedule: Q01DX001 (ip), vehicle: Klucel (hydroxypropylcellulose) (HPC)",178 % of control
Cc1cc(OCc2nc(N)nc(N)c2-c2ccc(Cl)c(Cl)c2)ccc1NS(=O)(=O)c1cccc(S(=O)(=O)F)c1,T/C,"dose: 176.0 mg/kg/injection, schedule: Q04DX003 (ip), vehicle: saline",122 % of control
same,T/C,"dose: 400.0 mg/kg/injection, schedule: Q04DX003 (ip), vehicle: saline",150 % of control
O=C(CCBr)NCCNC(=O)CCBr,T/C,"dose: 43.75 mg/kg/injection, schedule: Q01DX009 (ip), vehicle: saline",105 % of control
same,T/C,"dose: 87.5 mg/kg/injection, schedule: Q01DX009 (ip), vehicle: saline",103 % of control
same,T/C,"dose: 175.0 mg/kg/injection, schedule: Q01DX009 (ip), vehicle: saline",108 % of control
CCN([NH-])C(=S)[S-].CCN([NH-])C(=S)[S-].[Ni],T/C,"dose: 6.25 mg/kg/injection, schedule: Q04DX003 (ip), vehicle: Klucel (hydroxypropylcellulose) (HPC)",99 % of control
same,T/C,"dose: 12.5 mg/kg/injection, schedule: Q04DX003 (ip), vehicle: Klucel (hydroxypropylcellulose) (HPC)",107 % of control
same,T/C,"dose: 25.0 mg/kg/injection, schedule: Q04DX003 (ip), vehicle: Klucel (hydroxypropylcellulose) (HPC)",103 % of control
C[N+](C)(C)CC[N+](C)(C)Cc1cccc2ccccc12,T/C,"dose: 50.0 mg/kg/injection, schedule: Q01DX009 (ip), vehicle: saline",106 % of control
same,T/C,"dose: 100.0 mg/kg/injection, schedule: Q01DX009 (ip), vehicle: saline",107 % of control
CCCC(=O)Oc1c(OC(=O)CCC)c(OC(=O)CCC)c(OC(=O)CCC)c(OC(=O)CCC)c1OC(=O)CCC,T/C,"dose: 100.0 mg/kg/injection, schedule: Q04DX002 (ip), vehicle: saline with Tween-80",95 % of control
same,T/C,"dose: 200.0 mg/kg/injection, schedule: Q04DX002 (ip), vehicle: saline with Tween-80",99 % of control
same,T/C,"dose: 400.0 mg/kg/injection, schedule: Q04DX002 (ip), vehicle: saline with Tween-80",90 % of control
Cc1ccc(NNC(=O)C(=O)O[C@H]2C(=O)OC[C@@H]2O)cc1,T/C,[1],100 % of control
same,T/C,[2],100 % of control
same,T/C,[3],93 % of control
CC1(C)OC(CP(=O)(c2ccccc2)c2ccccc2)C(CP(=O)(c2ccccc2)c2ccccc2)O1 (stereo unspecified),T/C,[1],97 % of control
same,T/C,[2],97 % of control
same,T/C,[3],94 % of control
OCC1OC(N(O)c2ccc(Oc3c(Cl)cc(Cl)cc3Cl)cc2)C(O)C(O)C1O (stereo unspecified),T/C,"dose: 60.0 mg/kg/injection, schedule: Q01DX005 (ip), vehicle: Klucel (hydroxypropylcellulose) (HPC)",100 % of control
same,T/C,"dose: 120.0 mg/kg/injection, schedule: Q01DX005 (ip), vehicle: Klucel (hydroxypropylcellulose) (HPC)",100 % of control
Cc1ccc(S(=O)(=O)N2c3ccccc3CCN2/C=C/c2ccccc2)cc1,T/C,[1],100 % of control
same,T/C,[2],93 % of control
same,T/C,[3],96 % of control
Cc1cccc(N(CCO)CCC#N)c1,T/C,"dose: 50.0 mg/kg/injection, schedule: Q01DX005 (ip), vehicle: distilled water + Tween-80 + alcohol",102 % of control
same,T/C,"dose: 100.0 mg/kg/injection, schedule: Q01DX005 (ip), vehicle: distilled water + Tween-80 + alcohol",101 % of control
same,T/C,"dose: 200.0 mg/kg/injection, schedule: Q01DX005 (ip), vehicle: distilled water + Tween-80 + alcohol",94 % of control
